One block for each compound: values may come before it.
Tests used:
[1] = design: method as in PMID 11883602; settings: in alcohol; reference standard; cited from earlier work
CAM vasculature = assay: PDT-induced vascular occlusion in CAM model; format: in vivo, Lohmann Brown chicken; settings: for Occlusion score: 10 nmol/embryo i.v., mean ± SEM of ten embryos, scale of Table 1
Protocol: Freshly fertilized eggs from Lohmann Brown chicken variety (Hong Hing Sdn. Bhd, Selangor, Malaysia) were incubated with the narrow apex down in a 90° swinging Octagon 40DX incubator (Brinsea Products Inc., Standford, England) at 37°C and 65% relative humidity. On embryo development day (EDD) three, an eggshell opening of about 4 mm in diameter was bored at the apex and sealed with adhesive tape to avoid contamination and desiccation of the egg contents. The eggs were further incubated in stationary position with the apex upright until ready for use at EDD-9.
For vascular occlusion study, the egg opening was extended to ∼30 mm in diameter on EDD-9. Embryos were intravenously administered with a single bolus of 10 nmol/embryo of phthalocyanine in dosing vehicle (5% CrEL, 5% EtOH in saline) at the CAM main vasculature. One min after injection, a site with blood vessel diameter between 5–100 µm was irradiated with a light dose of 5 J/cm^2 or 10 J/cm^2. Irradiation was performed with light of 600–800 nm wavelength with a fluence rate of 11.5 mW/cm^2 over an irradiation area of 1.13 mm^2. Fluorescence angiograms were performed immediately to assess the PDT-induced vasculature damage. Blood vessels were perfused with 20 µl of 25 mg/ml FITC-dextran followed by injection of Indian ink into the extra-embryonic cavity to decrease the embryo’s interfering fluorescence from deeper located vessels. The vasculature network at the site of irradiation was illuminated by exciting FITC at 465–496 nm wavelengths on the fluorescence microscope. The vasculature network was imaged and the extent of damage induced by PDT was scored using a previously defined arbitrary damage scale from 1 to 5 as listed in Table 1 [26]. Generally, the damage on smaller vessels would have lower score whereas the damage on larger blood vessels would have higher score, depending on the size and degree of damage that was caused. At least 10 embryos were assessed for each treatment group.

[2] = system: MCF-7, HCT-116 and HSC-2 cancer cell-lines; assay: In vitro phototoxicity assay (MTT), panel of cancer cell lines; format: cell-based, human; settings: 4.0 J/cm^2
Protocol: MCF-7 human breast carcinoma and HCT-116 cells human colon carcinoma cell lines were obtained from American Tissue Culture Collection (Virginia, USA), whereas HSC-2 human oral squamous carcinoma cell line was purchased from Health Science Research Resources Bank, (Osaka, Japan). Approximately 3000–4000 cells/well were seeded in 96-well plate and incubated overnight for cell adherence and growth. […] Illumination was performed in the presence of photosensitizer in the media. The cells were further incubated for 48 h before cell viability was assessed by the MTT assay. For MTT assay, 20 µl of MTT solution (5 mg/ml) were added to each well and incubated for 4 h. The medium was removed and replaced with 100 µl of DMSO to dissolve the formazan crystal formed and the absorbance was read at 570 nm with a microplate reader. The percentage of cell viability was determined relative to untreated control and the half maximal inhibitory concentration (IC50) values were determined. Dark toxicity for each phthalocyanine was also determined in parallel.

[3] = Log P partition coefficient, shake-flask method; format: physicochemical; settings: Octanol-1/H2O, room temperature
Protocol: Phthalocyanines were prepared in presaturated Octanol-1 (Oct) or H2O depending on their solubility (ZnPcS4, phthalocyanines 1 and 2 in H2O; phthalocyanine 3 in Oct) with concentrations ranging from 1–20 µM. […] The glass tube was left to stand for 1–2 h at room temperature. The absorbance of the phthalocyanine was measured before addition of the other solvent and also after incubation. To obtain log P value, calculations were done using the formula: log P = log [COct/CH2O] where, COct and CH2O represent concentrations of phthalocyanine in Oct and H2O, respectively. Partition coefficient (log P) is defined as the ratio of concentrations of a dissolved substance in a two-phase system consisting of two immiscible solvents e.g. n-octanol and water at equilibrium. It reflects the level of hydrophilicity and hydrophobicity of a compound, which determines the permeability of the compound across the lipid bilayers of cell membrane. In this study, the log P values of the phthalocyanines were measured using the shake-flask method.

[4] = design: method as in earlier work; settings: in DMSO; reference standard value; cited from earlier work
HSC-2 cells = assay: Cellular uptake study by flow cytometry; format: cell-based, human; settings: 10 µM
Protocol: HSC-2 cells were plated overnight in 6-well plates (1×10^5 cells/well) in MEM media. Cells were incubated with 10 µM of phthalocyanine 1, 2, 3 or ZnPcS4 for various time intervals. Following incubation, cells were washed twice with PBS, collected by trypsinization and resuspended in phenol red-free MEM media. The mean fluorescence signal for 10 000 cells were analyzed using FACSCalibur flow cytometer (Becton Dickinson, NJ) with FL4 channel (excitation 635 nm, bandpass filter 661/16 nm) and data collected were translated into relative concentration using the formula F = k * QE * Po * (2.303 *ε * b * c). All assays were performed in triplicates. F = measured fluorescence intensity, k = geometric instrumental factor, QE = quantum efficiency (ratio of photons being emitted to photons being absorbed) and Po = radiant power of the excitation source (wavelength-dependent molar absorptivity coefficient). b and c are as being used in the Beer-Lambert law, where b = path length, and c = concentration of the analyte.

[5] = system: HCT-116 cells human colon carcinoma; assay: In vitro phototoxicity assay (MTT); format: cell-based; settings: 2 h incubation, MTT after 48 h
Protocol: (§1) MCF-7 human breast carcinoma and HCT-116 cells human colon carcinoma cell lines were obtained from American Tissue Culture Collection (Virginia, USA), whereas HSC-2 human oral squamous carcinoma cell line was purchased from Health Science Research Resources Bank, (Osaka, Japan). Approximately 3000–4000 cells/well were seeded in 96-well plate and incubated overnight for cell adherence and growth. Cells were then treated with phthalocyanines 1, 2, 3 or ZnPcS4 with concentrations ranging from 0.01 to 100 µM and were incubated for 2 h before irradiated with 4.0 J/cm^2 of light filtered with Roscolux #26 Light Red (>580 nm) (Rosco, NY) membrane filter at a fluence rate of 7.5 mW/cm^2 for 10 min. Illumination was performed in the presence of photosensitizer in the media. The cells were further incubated for 48 h before cell viability was assessed by the MTT assay. For MTT assay, 20 µl of MTT solution (5 mg/ml) were added to each well and incubated for 4 h. The medium was removed and replaced with 100 µl of DMSO to dissolve the formazan crystal formed and the absorbance was read at 570 nm with a microplate reader. The percentage of cell viability was determined relative to untreated control and the half maximal inhibitory concentration (IC50) values were determined. Dark toxicity for each phthalocyanine was also determined in parallel.

[6] = system: HSC-2 human oral squamous carcinoma cell line; assay: In vitro phototoxicity assay (MTT); format: cell-based; settings: 2 h incubation, MTT after 48 h
Protocol: as §1

[7] = system: MCF-7 human breast carcinoma; assay: In vitro phototoxicity assay (MTT); format: cell-based; settings: 2 h incubation, MTT after 48 h
Protocol: as §1

[8] = UV-visible absorption spectra in different solvents; format: physicochemical; design: λmax: unit not given beside the values; settings: 10 µM
Protocol: The UV-visible (10 µM) and fluorescence emission spectra (5 µM) of phthalocyanines in different solvents were measured using SpectraMax M4 microplate reader (Molecular Devices, CA). UV-visible spectra were collected for wavelengths ranging from 350–800 nm and molar extinction coefficient (ε) for each compound was determined. Meanwhile, the fluorescence emission spectra of the compounds were recorded at 650–800 nm following excitation at their respective maximal absorption (λmax). The fluorescence quantum yields (φF) were calculated by using the following formula: φF = φFstd (F×Astd)/[…] where, F and Fstd refer to the area under the fluorescence curve of sample and standard, respectively. A and Astd refer to the absorbance of sample and standard compound at their excitation wavelengths respectively. ZnPcS4 with φFstd = 0.07 (DMSO) was used as reference.

Compound: C=Cc1c(C)c2cc3nc(c4c5[nH]c(cc6nc(cc1[nH]2)C(C)=C6CC)c(C)c5C(=O)[C@@H]4C(=O)OC)[C@@H](CCC(=O)O)[C@@H]3C [Pha, pheophorbide a]
singlet oxygen quantum yield [1]: 0.52

log P [3]: −1.7±0.4
ε ([8]; DMSO): 114 000 M^−1cm^−1
λmax ([8]; DMSO): 676
ε ([8]; Ethanol): 27 000 M^−1cm^−1
λmax ([8]; Ethanol): 666
ε ([8]; PBS+2% Triton x-100): 20 000 M^−1cm^−1
λmax ([8]; PBS+2% Triton x-100): 606
ε ([8]; PBS): 23 000 M^−1cm^−1
λmax ([8]; PBS): 606
Compound: tetrasulfonated zinc (II) phthalocyanine [ZnPcS4]
Occlusion score (CAM vasculature; 5 J/cm^2, 600–800 nm): 0 ± 0.0
Occlusion score (CAM vasculature; 10 J/cm^2, 600–800 nm): 0 ± 0.2
vascular occlusion effect (in words) (CAM vasculature; 10 nmol/embryo, 5 J/cm^2): failed to demonstrate vascular occlusion effects
vascular occlusion effect (in words) (CAM vasculature; similar experimental conditions, light dose not stated at the place (abstract)): no detectable vascular occlusion
phototoxicity IC50, range over MCF-7, HCT-116 and HSC-2 ([2]; tested up to 100 µM): failed to yield determinable IC50 values
loss of cell viability ([2]; treatment concentrations of up to 100 µM): no significant loss of cell viability
φF (fluorescence quantum yield) [4]: 0.07
cellular uptake (in words) (HSC-2 cells): poorly taken up by cells
IC50 ([5]; 0 J/cm^2 (dark toxicity)): > 100 µM
IC50 ([5]; 4.0 J/cm^2 (>580 nm)): > 100 µM
IC50 ([6]; 0 J/cm^2 (dark toxicity)): > 100 µM
IC50 ([6]; 4.0 J/cm^2 (>580 nm)): > 100 µM
IC50 ([7]; 0 J/cm^2 (dark toxicity)): > 100 µM
IC50 ([7]; 4.0 J/cm^2 (>580 nm)): > 100 µM

Reference: PMC4026539, “Improved Photodynamic Efficacy of Zn(II) Phthalocyanines via Glycerol Substitution” (PLoS ONE, 2014)
